Test results from patent US20100184698A1, “USE OF A […] […] A […] AGENT” (priority 2007, published 2010).
Read-outs that look alike come from different tables or passages of the source. Where no end group is shown, it is not given here.

System: drug-resistant Mycobacterium tuberculosis

| Compound | inhibition of the growth of Mycobacterium tuberculosis (drug-resistant, 5 micrograms per ml) [%] | inhibition of the growth of Mycobacterium tuberculosis [%] |
| --- | --- | --- |
| CCNC(=O)[C@@H]1CCCN1C(=O)[C@H](CCCN=C(N)N)NC(=O)[C@H](CC(C)C)NC(=O)[C@@H](Cc1c[nH]c2ccccc12)NC(=O)[C@H](Cc1ccc(O)cc1)NC(=O)[C@H](CO)NC(=O)[C@H](Cc1c[nH]c2ccccc12)NC(=O)[C@H](Cc1cnc[nH]1)NC(=O)[C@@H]1CCC(=O)N1 [Peptide 1, Pyr-His-Trp-Ser-Tyr-D-Trp-Leu-Arg-Pro-NHEt] | 100 |  |
| Ile-Asn-Leu-Lys-Ala-Leu-Ala-Ala-Leu-Ala-Lys-Lys-Ile-Leu-NH2 (INLKALAALAKKIL-NH2) [Peptide 2] |  | 100 |
